Columns and labels:
Female SD rats = experiment: Diuretic action (rats); format: in vivo, rat (SD); conditions: mean ± S.E.
Description: Female SD rats aged 6 weeks (9 rats per dosage) were used. After an 18-hour fast, the rats were dosed with the test drug and, at the same time, orally loaded with 20 ml/kg of physiological saline. The rats were then placed in metabolism cages, 3 animals per cage, and the 0-6 hour and 6-24 hour urines were collected. Meanwhile, the animals were additionally loaded with 25 ml/kg of physiological saline immediately after collection of the 0-6 hour urine. Na^+ in urine was determined with STAT/ION II (Technicon).
The results were respectively converted to the amounts of excretion per kg rat body weight, which were then tabulated as the mean±S.E. for each dose level.
The drug was suspended in 0.5% methylcellulose at necessary concentrations and 5 ml/kg of each suspension was orally administered. The control group similarly received 0.5% methylcellulose only.

DOCA hypertensive rats = experiment: Antihypertension action (DOCA hypertensive rats); format: in vivo, rat (Wistar)
Description: Male Wistar rats, 10 weeks old, were subjected to left nephrectomy and 2 to 4 days after operation, deoxycorticosterone acetate was administered subcutaneously in a dose of 30 mg/ml/kg twice a week. The animals were given 1% saline for drinking water and the individuals showing a mean blood pressure of ≥150 mmHg at 15 weeks of age were submitted to the experiment. After catheterization, saline for drinking water was replaced with tap water. At the beginning of the experiment, the test rats had mean blood pressures from 152 to 204 mmHg, heart rates from 354 to 462 beats/min. and body weights from 232 to 318 g. 3~5 Animals per group were used.
3 Or 4 days before the beginning of the experiment, one end of a catheter for blood pressure measurement was passed from the femoral artery to the abdominal aorta of each rat and the other end was passed beneath the skin and fixed in exposed position in the dorsocervical region. The drug was orally administered once a day for 5 consecutive days. The rats had been deprived of food for about 3 hours before drug administration. The blood pressure was measured before administration and 5 hours after administration of days 1, 3 and 5. At each blood pressure measurement, the mean blood pressure was observed via a pressure transducer connected to the dorsocervical end of the catheter for blood pressure measurement and the stabilized mean blood pressure was recorded.
Drug was suspended and diluted using a 0.5% solution of methylcellulose and 5ml/kg of the suspension was orally administered.

Female beagle dogs = experiment: Diuretic action (beagle dogs); format: in vivo, dog (beagle); conditions: 100 mg/kg p.o., interval not given, mean ± S.E.
Description: Female beagle dogs weighing 8 to 10 kg were used (6 dogs per group). After an 18-hour fast, the animals were orally dosed with 5 ml/kg of suspensions of the drug in 0.5% methylcellulose and, at the same time, orally loaded with 15 ml/kg of physiological saline and the 0-6 hr and 6-24 hr urines were collected. Meanwhile, the dogs were additionally loaded with 20 ml/kg of physiological saline immediately after collection of the 0-6 hr urine. Na^+ in urine was determined with STAT/ION (Technicone).
The results were respectively converted to the amounts of excretion per kg body weight, which were then tabulated as the mean±S.E. for each dose level. The control group similarly received 0.5% methylcellulose instead of the drug.

[1] = 3.2 mg/kg p.o. once a day, Day 1 after 5 hr
[2] = 3.2 mg/kg p.o. once a day, Day 1 before administration (baseline)
[3] = 3.2 mg/kg p.o. once a day, Day 3 after 5 hr
[4] = 3.2 mg/kg p.o. once a day, Day 3 before administration
[5] = 3.2 mg/kg p.o. once a day, Day 5 after 5 hr
[6] = 3.2 mg/kg p.o. once a day, Day 5 before administration
[7] = 10 mg/kg p.o. once a day, Day 1 after 5 hr
[8] = 10 mg/kg p.o. once a day, Day 1 before administration (baseline)
[9] = 10 mg/kg p.o. once a day, Day 3 after 5 hr
[10] = 10 mg/kg p.o. once a day, Day 3 before administration
[11] = 10 mg/kg p.o. once a day, Day 5 after 5 hr
[12] = 10 mg/kg p.o. once a day, Day 5 before administration
[13] = 100 mg/kg p.o. once a day, Day 1 after 5 hr
[14] = 100 mg/kg p.o. once a day, Day 1 before administration (baseline)
[15] = 100 mg/kg p.o. once a day, Day 3 after 5 hr
[16] = 100 mg/kg p.o. once a day, Day 3 before administration
[17] = 100 mg/kg p.o. once a day, Day 5 after 5 hr
[18] = 100 mg/kg p.o. once a day, Day 5 before administration

## O=C(O)Cn1c(=O)n(Cc2ccc(Br)cc2F)c(=O)c2ccc(F)cc21 [Compound B, 2-[7-Fluoro-3-(4-bromo-2-fluorobenzyl)-1,2,3,4-tetrahydro-2,4-dioxoquinazolin-1-yl]acetic acid]
Female SD rats; 100 mg/kg p.o., 0-6 hr, control 13.2 ± 2.0
  Urine volume: 30.1 ± 1.5 mL/kg
Female SD rats; 100 mg/kg p.o., 0-6 hr, control 1460 ± 173
  Na^+ (urine): 2416 ± 101 μEq/kg
Female SD rats; 100 mg/kg p.o., 6-24 hr, control 26.59 ± 2.24
  Urine volume: 33.69 ± 0.55 mL/kg
Female SD rats; 100 mg/kg p.o., 6-24 hr, control 3830 ± 463
  Na^+ (urine): 3940 ± 295 μEq/kg
Female SD rats; 100 mg/kg p.o., total 0-24 hr, control 39.78 ± 4.26
  Urine volume: 63.75 ± 1.19 mL/kg
Female SD rats; 100 mg/kg p.o., total 0-24 hr, control 5289 ± 636
  Na^+ (urine): 6356 ± 311 μEq/kg
Female SD rats; 320 mg/kg p.o., 0-6 hr, control 13.2 ± 2.0
  Urine volume: 37.9 ± 1.5 mL/kg
Female SD rats; 320 mg/kg p.o., 0-6 hr, control 1460 ± 173
  Na^+ (urine): 3021 ± 440 μEq/kg
Female SD rats; 320 mg/kg p.o., 6-24 hr, control 26.59 ± 2.24
  Urine volume: 61.22 ± 6.20 mL/kg
Female SD rats; 320 mg/kg p.o., 6-24 hr, control 3830 ± 463
  Na^+ (urine): 5861 ± 194 μEq/kg
Female SD rats; 320 mg/kg p.o., total 0-24 hr, control 39.78 ± 4.26
  Urine volume: 99.10 ± 6.64 mL/kg
Female SD rats; 320 mg/kg p.o., total 0-24 hr, control 5289 ± 636
  Na^+ (urine): 8882 ± 630 μEq/kg
DOCA hypertensive rats; [1]
  Mean blood pressure: 176 mm Hg
  Percentage of change (mean blood pressure): -8.9%
DOCA hypertensive rats; [2]
  Mean blood pressure: 193 mm Hg
  Percentage of change (mean blood pressure): 0.0%
DOCA hypertensive rats; [3]
  Mean blood pressure: 160 mm Hg
  Percentage of change (mean blood pressure): -17.1%
DOCA hypertensive rats; [4]
  Mean blood pressure: 175 mm Hg
  Percentage of change (mean blood pressure): -9.3%
DOCA hypertensive rats; [5]
  Mean blood pressure: 161 mm Hg
  Percentage of change (mean blood pressure): -16.7%
DOCA hypertensive rats; [6]
  Mean blood pressure: 167 mm Hg
  Percentage of change (mean blood pressure): -13.5%
DOCA hypertensive rats; [7]
  Mean blood pressure: 148 mm Hg
  Percentage of change (mean blood pressure): -17.5%
DOCA hypertensive rats; [8]
  Mean blood pressure: 180 mm Hg
  Percentage of change (mean blood pressure): 0.0%
DOCA hypertensive rats; [9]
  Mean blood pressure: 132 mm Hg
  Percentage of change (mean blood pressure): -26.1%
DOCA hypertensive rats; [10]
  Mean blood pressure: 137 mm Hg
  Percentage of change (mean blood pressure): -23.3%
DOCA hypertensive rats; [11]
  Mean blood pressure: 143 mm Hg
  Percentage of change (mean blood pressure): -20.0%
DOCA hypertensive rats; [12]
  Mean blood pressure: 139 mm Hg
  Percentage of change (mean blood pressure): -22.5%
DOCA hypertensive rats; [13]
  Mean blood pressure: 151 mm Hg
  Percentage of change (mean blood pressure): -14.5%
DOCA hypertensive rats; [14]
  Mean blood pressure: 176 mm Hg
  Percentage of change (mean blood pressure): 0.0%
DOCA hypertensive rats; [15]
  Mean blood pressure: 130 mm Hg
  Percentage of change (mean blood pressure): -26.2%
DOCA hypertensive rats; [16]
  Mean blood pressure: 144 mm Hg
  Percentage of change (mean blood pressure): -18.4%
DOCA hypertensive rats; [17]
  Mean blood pressure: 135 mm Hg
  Percentage of change (mean blood pressure): -23.6%
DOCA hypertensive rats; [18]
  Mean blood pressure: 138 mm Hg
  Percentage of change (mean blood pressure): -22.3%
Female beagle dogs; control 5.8 ± 1.4
  Urine volume: 13.3 ± 2.6 mL/kg
Female beagle dogs; control 544 ± 133
  Na^+ (urine): 1068 ± 280 μEq/kg

From patent US4957923A, “Diuretic or antihypertensive composition” (Fujisawa Pharmaceutical Co., Ltd., priority 1988, dated 1990)
